In publication PMC11904721 (ACS Omega, 2025) one finds IC50 data, which are given here for two molecules.

This assay concerns the target S. aureus DNA gyrase (Staphylococcus aureus, UniProt P0A0K8+P20831). Nature of the assay: DNA gyrase supercoiling inhibition assay. The assay is classed as biochemical. To be noted: read-out: IC50(μM) (mean ± SEM) / S. aureusDNA gyrase supercoiling.

Chain of S. aureus DNA gyrase (P20831 whole entry): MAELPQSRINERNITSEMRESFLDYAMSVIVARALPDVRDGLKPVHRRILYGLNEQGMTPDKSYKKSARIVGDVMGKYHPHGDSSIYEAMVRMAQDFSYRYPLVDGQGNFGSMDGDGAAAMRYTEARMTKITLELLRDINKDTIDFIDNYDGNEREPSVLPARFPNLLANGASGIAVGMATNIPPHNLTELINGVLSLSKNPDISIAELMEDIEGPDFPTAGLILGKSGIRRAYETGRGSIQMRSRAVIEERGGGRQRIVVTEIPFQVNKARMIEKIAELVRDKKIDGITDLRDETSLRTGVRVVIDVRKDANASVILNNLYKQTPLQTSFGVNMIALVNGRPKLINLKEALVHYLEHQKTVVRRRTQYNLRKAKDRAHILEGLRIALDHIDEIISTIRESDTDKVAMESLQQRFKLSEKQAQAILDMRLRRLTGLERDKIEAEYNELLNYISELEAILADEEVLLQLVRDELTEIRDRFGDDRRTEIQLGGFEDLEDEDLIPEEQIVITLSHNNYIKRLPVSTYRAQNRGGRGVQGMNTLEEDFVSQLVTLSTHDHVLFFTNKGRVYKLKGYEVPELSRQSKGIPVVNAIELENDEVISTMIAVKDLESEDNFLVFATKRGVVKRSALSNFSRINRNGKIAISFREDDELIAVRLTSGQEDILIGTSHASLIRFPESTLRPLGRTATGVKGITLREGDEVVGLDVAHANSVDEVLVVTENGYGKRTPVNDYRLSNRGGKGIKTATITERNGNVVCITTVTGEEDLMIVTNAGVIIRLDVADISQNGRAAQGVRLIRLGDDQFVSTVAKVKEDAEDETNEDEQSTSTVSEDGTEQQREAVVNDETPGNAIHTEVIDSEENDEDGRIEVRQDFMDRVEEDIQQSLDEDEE
Chain of S. aureus DNA gyrase (P0A0K8 2-644): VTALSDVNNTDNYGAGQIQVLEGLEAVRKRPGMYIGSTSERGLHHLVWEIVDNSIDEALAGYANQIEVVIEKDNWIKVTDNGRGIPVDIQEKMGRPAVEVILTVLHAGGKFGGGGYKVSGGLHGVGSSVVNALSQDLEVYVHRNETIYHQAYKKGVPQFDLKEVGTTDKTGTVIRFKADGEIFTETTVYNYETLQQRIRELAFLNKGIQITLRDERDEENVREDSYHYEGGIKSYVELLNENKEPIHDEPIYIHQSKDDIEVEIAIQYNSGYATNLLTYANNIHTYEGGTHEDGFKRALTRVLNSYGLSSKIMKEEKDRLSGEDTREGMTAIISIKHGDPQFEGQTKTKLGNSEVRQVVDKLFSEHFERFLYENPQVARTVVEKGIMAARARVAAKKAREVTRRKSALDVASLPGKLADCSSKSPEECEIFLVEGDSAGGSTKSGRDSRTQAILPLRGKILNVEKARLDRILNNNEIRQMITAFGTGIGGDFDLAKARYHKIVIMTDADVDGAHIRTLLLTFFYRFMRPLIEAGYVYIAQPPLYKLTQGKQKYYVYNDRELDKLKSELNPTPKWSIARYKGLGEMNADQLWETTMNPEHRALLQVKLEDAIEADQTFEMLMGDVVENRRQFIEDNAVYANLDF

As for `CS(=O)(=O)N1SCC(=O)c2c1sc1c2SC2N(c3ccccc3)C(=O)c3ccccc3N12` (centres unmarked) [compound 4, 11-(methylsulfonyl)-6-phenyl-6,6a-dihydro-5H,9H-[1,2]thiazino[4″,3”:4′,5′]thieno[2′,3′:4,5]thiazolo[3,2-a]quinazoline-5,8(11H)-dione], the IC50 stood at 11.7 ± 0.47 µM.

Consider `CCOC(=O)c1c(-n2cnnn2)sc2c1SC1N(c3ccccc3)C(=O)c3ccccc3N21` (centres unmarked) [compound 5, Ethyl 5-Oxo-6-phenyl-9-(1H-tetrazol-1-yl)-6,6a-dihydro-5H-thieno[2′,3′:4,5]thiazolo[3,2-a]quinazoline-8-carboxylate], for which the IC50 amounted to 7.13 ± 0.28 µM.
